According to patent US7309817B2, “Plant alpha farnesene synthase and polynucleotides encoding same” (The Horticulture and Food Research Institute of New Zealand …, priority 2002, dated 2007):

Assays:
[1] = system: CC(C)=CCC/C(C)=C/CC/C(C)=C/CO[P@@](=O)(O)OP(=O)(O)O; assay: purified protein, by the assay type; conditions: other: protein stored at -80 C for 9 months; pH 7.5
[2] = system: other sesquiterpene synthases; conditions: other sesquiterpene synthases (Cai et al 2002, Steele et al 1998); read-out: Km reported in the literature; cited from earlier work
alpha-farnesene synthase = biological target: T1, alpha-farnesene synthase (Malus domestica, UniProt Q84LB2, A297S/I281F); assay type: biochemical; conditions: for Vrel (%), relative activity due to additions of metal ions: saturating FDP, Mg 7 mM, Mn 150 μM, KCl or NaCl 50 mM
T1 construct: a cDNA fragment encoding EST57400 was excised from pBK-CMV57400 using a EcoRI restriction endonuclease site immediately adjacent to the start ATG; His6 (from vector pET-30a) (N); made in house; host or cells: E. coli BL21-CodonPlus-RIL
Description: Kinetic Studies: For kinetic studies, alpha-farnesene synthase active protein that had been induced in culture and purified as described for protein optimisation was added to a minimal assay buffer containing 50 mM Bis-Tris-Propane (pH 7.5), 10% (v/v) glycerol, 1 mM DTT and 0.1% (v/v) Tween-20. […] One mL assays containing 1-2 μg of protein were overlaid with 0.6 mL pentane and incubated in 1.5 mL microfuge tubes for 2 hours at 30° C. and 150 rpm. All assays were performed in triplicate. Following incubation assays were immediately placed on ice and a 200 μL aliquot of the pentane layer removed for analysis. The aliquots were added to 1.5 mL microfuge tubes containing […] Organic Counting Scintillant (OCS) (Amersham) and vortexed briefly. Scintillation analysis was performed using a Wallac 1409 Liquid Scintillation Counter (^3H efficiency≈70%).
The effect on enzyme activity of metal co-factors with and without salts was also tested. Mg^2+ and Mn^2+ were added in the presence and absence of 50 mM KCL and 50 mM NaCl in all possible combinations. Controls included incubation without enzyme, with enzyme but without metal ion cofactors and with enzyme and cofactors in the presence of 10 mM EDTA.
Kinetic constants were determined from the DPM data by nonlinear regression using the Origin50 graphics package. […] All experiments were carried out at least twice.

[3] = Storage stability of purified recombinant alpha-farnesene synthase at -80 C; assay type: physicochemical
Description: Characterization of alpha-farnesene synthase from bacterial extracts and partially purified alpha-farnesene synthase recombinant protein: Cultures were set up, grown and induced as above. Following induction, cultures were immediately transferred to a 24° C. incubator and allowed to grow for a further 18-20 hours with continuous agitation and then cells harvested by centrifugation (2000×g for 10 min). […] The remainder of the extract (15 ml) was applied to PD-10 gel filtration columns (Amersham-Pharmacia Biotech) pre-equilibrated with either binding or extraction buffer (DTT omitted). Eluent fractions were then pooled and purification of recombinant protein was carried out in a single step using immobilised metal affinity chromatography (IMAC). The eluent was applied to a Hi-Trap Chelating HP column (Amersham-Pharmacia Biotech) charged with Ni^+. Non bound proteins were removed and recombinant protein was eluted following the manufacturer's specifications. […] Headspace volatiles were collected as in the bacterial cultures. Aliquots of the remaining recombinant protein were stored at −80° C. in 20% glycerol until required.
Protein concentration was determined from the extinction coefficient (VectorNTI version 8) and the purified extract adjusted to ˜1 mg protein/mL with His6 elution buffer containing 10% glycerol and 1 mM DTT. […]

Molecule: alpha-farnesene synthase (Malus domestica; A297S/I281F)
- Km [1]: 1.5 µM

Molecule: [Mg+2] [Mg^2+]
- Km [2]: 70 to 150 µM
- inhibition of activity at high Mg2+ concentration (alpha-farnesene synthase; 25 mM Mg2+): 23%
- Vrel (%), relative activity due to additions of metal ions (alpha-farnesene synthase): 16%

Molecule: [Mn+2] [Mn^2+]
- Km [2]: 7 to 30 µM
- inhibition of activity at high Mn2+ concentration (alpha-farnesene synthase; >800 μM Mn2+): at least 50%
- Vrel (%), relative activity due to additions of metal ions (alpha-farnesene synthase): 13%

B1: alpha-farnesene synthase: recombinant His-tagged sesquiterpene synthase from apple (Malus domestica Royal Gala) skin, expressed in E. coli (protein, listed as Malus domestica)
chain: MEFRVHLQADNEQKIFQNQMKPEPEASYLINQRRSANYKPNIWKNDFLDQSLISKYDGDEYRKLSEKLIEEVKIYISAETMDLVAKLELIDSVRKLGLANLFEKEIKEALDSIAAIESDNLGTRDDLYGTALHFKILRQHGYKVSQDIFGRFMDEKGTLENHHFAHLKGMLELFEASNLGFEGEDILDEAKASLTLALRDSGHICYPDSNLSRDVVHSLELPSHRRVQWFDVKWQINAYEKDICRVNATLLELAKLNFNVVQAQLQKNLREASRWWANLGFADNLKFARDRLVECFSCAVGVAFEPEHSSFRICLTKVINLVLIIDDVYDIYGSEEELKHFTNAVDRWDSRETEQLPECMKMCFQVLYNTTCEIAREIEEENGWNQVLPQLTKVWADFCKALLVEAEWYNKSHIPTLEEYLRNGCISSSVSVLLVHSFFSITHEGTKEMADFLHKNEDLLYNISLIVRLNNDLGTSAAEQERGDSPSSIVCYMREVNASEETARKNIKGMIDNAWKKVNGKCFTTNQVPFLSSFMNNATNMARVAHSLYKDGDGFGDQEKGPRTHILSLLFQPLVN
modifications: His tag
notes: recombinant His-tagged sesquiterpene synthase from apple (Malus domestica Royal Gala) skin, expressed in E. coli
- temperature of maximum activity (alpha-farnesene synthase; 7 mM Mg, 150 μM Mn, 25 μM FDP, FIG. 14): 37 °C
- loss of activity on storage ([3]; stored at -80 C for 9 months): 92.5%
- loss of activity on storage ([3]; stored in glycerol for 4 weeks at -80 C): 15%
